According to US9850283B2, “Macrocyclic inhibitors of the PD-1/PD-L1 and CD80(B7-1)/PD-L1 protein/protein interactions” (BRISTOL-MYERS SQUIBB COMPANY, priority 2013, dated 2017):
Like-named read-outs stand apart in the source and are kept apart here. Starred links: 1 amine or outer side, 2 acyl side, 3 side chain; linkers in the order of their positions; H or OH if unused. Positions of bridges follow the written chain, without caps; N, C: chain ends. Non-standard residues stand in square brackets, D forms with d. Residues, ends and D or L forms follow the SMILES beside them. Phe(3,4,5-F3) = N[C@@H](Cc1cc(F)c(F)c(F)c1)C(=O)O; Tyr(3-Br) = N[C@@H](Cc1ccc(O)c(Br)c1)C(=O)O; Phe(3-Cl) = N[C@@H](Cc1cccc(Cl)c1)C(=O)O; Phe(4-Cl) = N[C@@H](Cc1ccc(Cl)cc1)C(=O)O; Phe(3-F) = N[C@@H](Cc1cccc(F)c1)C(=O)O; d(cisHyp) = O=C(O)[C@H]1C[C@@H](O)CN1; Bta = N[C@@H](Cc1csc2ccccc12)C(=O)O; Hyp = O=C(O)[C@@H]1C[C@@H](O)CN1; NMeF = CN[C@@H](Cc1ccccc1)C(=O)O; X4 = O=C([C@H]1COCCN1[*:1])[*:2]; NMeNle = CCCC[C@H](NC)C(=O)O; NMeA = CN[C@@H](C)C(=O)O; Orn = NCCC[C@H](N)C(=O)O; Dab = NCC[C@H](N)C(=O)O; Sar = CNCC(=O)O

Legend:
[1] = target: T1, Human PD-L1/PD-1 (Homo sapiens, UniProt Q9NZQ7); experiment: HTRF PD-1-Ig/PD-L1-His binding assay (human PD-L1)
T1 construct: made in house; host or cells: HEK293T
T1 sequence (Q9NZQ7 with tags, fused parts or gaps): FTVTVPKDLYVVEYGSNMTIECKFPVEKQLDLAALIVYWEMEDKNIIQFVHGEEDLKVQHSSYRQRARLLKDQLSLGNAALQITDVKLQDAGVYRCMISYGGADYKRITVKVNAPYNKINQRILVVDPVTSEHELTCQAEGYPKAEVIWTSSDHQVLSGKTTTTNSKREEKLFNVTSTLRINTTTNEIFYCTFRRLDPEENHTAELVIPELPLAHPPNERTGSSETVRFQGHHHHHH
Method in brief: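 Readout: time-resolved FRET between Eu cryptate-labeled anti-Ig (1 nM final) and APC-labeled anti-His (20 nM final) antibodies. These detect interaction of Fc-fused PD-1 with His-tagged human PD-L1 in dPBS containing 0.1% BSA and 0.05% Tween-20.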

[2] = target: T2, LK35.2-hPD-L1 cells / PE-labeled PD-1-Ig (Homo sapiens, UniProt Q9NZQ7); experiment: LK35.2-hPD-L1 cell binding high-content screening assay; format: cell-based
T2 construct: expressed in transfected cells; host or cells: LK35.2 mouse B cell line
T2 sequence (Q9NZQ7 19-290): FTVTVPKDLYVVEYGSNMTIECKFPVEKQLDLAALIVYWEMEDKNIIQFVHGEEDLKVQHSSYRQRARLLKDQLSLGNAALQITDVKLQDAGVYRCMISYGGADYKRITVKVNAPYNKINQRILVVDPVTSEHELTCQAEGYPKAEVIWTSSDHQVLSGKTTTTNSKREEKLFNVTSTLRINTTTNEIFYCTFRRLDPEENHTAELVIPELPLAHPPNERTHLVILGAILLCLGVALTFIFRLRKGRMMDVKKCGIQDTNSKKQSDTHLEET
Method in brief: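 Using overnight-cultured LK35.2-hPD-L1 mouse B cells, compound was co-incubated with phycoerythrin-tagged human PD-1-Ig (final 1 nM) at 37 °C for one hour. Unbound label was removed by triple dPBS washing prior to high-content image acquisition and analysis.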

[3] = cluster symbol, read-out: HTRF IC50 cluster
[4] = cell binding assay, cell line not given, cluster symbol, read-out: CBA IC50 cluster
[5] = cluster symbol, cell line of CBA not given (LK35.2-hPD-L1 or 293T-hPD-L1), read-out: CBA IC50 cluster

Structure (SMILES) | IC50 [1, 3] | IC50 [2, 4] | IC50 ([1]; value given instead of cluster, read-out: HTRF IC50 value) | IC50 ([2]; cell binding assay, cell line not given, value given instead of cluster, read-out: CBA IC50 value) | IC50 [2, 5]
CCCC[C@H]1C(=O)N2C[C@H](O)C[C@@H]2C(=O)N[C@@H](CC(=O)O)C(=O)N[C@@H](C(C)C)C(=O)N(C)[C@@H](Cc2ccccc2)C(=O)N[C@@H](CCCN)C(=O)N2CCOC[C@@H]2C(=O)N[C@@H](Cc2c[nH]c3ccccc23)C(=O)N[C@@H](Cc2ccc(O)cc2)C(=O)N[C@@H](CCCN)C(=O)N[C@H](C(=O)NCC(N)=O)CSCC(=O)N[C@@H](Cc2cc(F)c(F)c(F)c2)C(=O)N(C)[C@@H](Cc2ccccc2)C(=O)N1C [Example 3598] ({CH2CO}-[Phe(3,4,5-F3)][NMeF][NMeNle][d(cisHyp)]DV[NMeF][Orn][X4]WY[Orn]CG-NH2; thioether N-13) | 0.385 to 6.74 nM | 0.158 to 4.71 nM | – | – | –
CCCC[C@H]1C(=O)N2CCC[C@@H]2C(=O)N[C@@H](CCCN)C(=O)N[C@H](C(=O)NCC(N)=O)CSCC(=O)N[C@@H](Cc2ccc(O)cc2)C(=O)N(C)[C@@H](C)C(=O)N[C@@H](CC(N)=O)C(=O)N2CCC[C@H]2C(=O)N[C@@H](Cc2cnc[nH]2)C(=O)N[C@@H](CC(C)C)C(=O)N2CCC[C@H]2C(=O)N[C@@H](Cc2c[nH]c3ccccc23)C(=O)N[C@@H](CO)C(=O)N[C@@H](Cc2c[nH]c3ccccc23)C(=O)N1C [Example 5011] (HELM PEPTIDE1{[O=C(C[*:3])[*:2]].Y.[meA].N.P.H.L.P.W.S.W.[CCCC[C@@H](C(=O)[*:2])N(C)[*:1]].[dP].[Orn].C.G.[am]}$PEPTIDE1,PEPTIDE1,1:R3-15:R3$$$V2.0) | 6.76 to 30.3 nM | 4.78 to 72.9 nM | – | – | –
CCCC[C@H]1C(=O)N2CCC[C@@H]2C(=O)N[C@@H](CCN)C(=O)N[C@H](C(=O)NCC(N)=O)CSCC(=O)N[C@@H](Cc2ccc(O)c(Br)c2)C(=O)N(C)[C@@H](C)C(=O)N[C@@H](CC(N)=O)C(=O)N2CCC[C@H]2C(=O)N[C@@H](Cc2cnc[nH]2)C(=O)N[C@@H](CC(C)C)C(=O)N(C)CC(=O)N[C@@H](Cc2c[nH]c3ccccc23)C(=O)N[C@@H](CCN)C(=O)N[C@@H](Cc2c[nH]c3ccccc23)C(=O)N1C [Example 6045] ({CH2CO}-[Tyr(3-Br)][NMeA]NPHL[Sar]W[Dab]W[NMeNle][dP][Dab]CG-NH2; thioether N-14) | – | – | 90.1 nM | 625 nM | –
CCCC[C@H]1C(=O)N(C)CC(=O)N[C@@H](CC(=O)O)C(=O)N[C@@H](Cc2ccc(O)cc2)C(=O)N(C)[C@@H](Cc2ccccc2)C(=O)N[C@@H](Cc2ccc(O)cc2)C(=O)N(C)CC(=O)N[C@@H](Cc2c[nH]c3ccccc23)C(=O)N[C@@H](Cc2ccc(O)cc2)C(=O)N[C@@H](CC(C)C)C(=O)N[C@H](C(=O)NCC(N)=O)CSCC(=O)N[C@@H](Cc2ccccc2)C(=O)N(C)[C@@H](Cc2ccccc2)C(=O)N1C [Example 3503] (HELM PEPTIDE1{[O=C(C[*:3])[*:2]].F.[meF].[CCCC[C@@H](C(=O)[*:2])N(C)[*:1]].[Sar].D.Y.[meF].Y.[Sar].W.Y.L.C.G.[am]}$PEPTIDE1,PEPTIDE1,1:R3-14:R3$$$V2.0) | > 30.5 nM | > 74.3 nM | – | – | –
CCCC[C@H]1C(=O)N(C)[C@@H](CCCC)C(=O)N[C@@H](CCCNC(=N)N)C(=O)N[C@H](C(=O)NCC(N)=O)CSCC(=O)N[C@@H](Cc2cccc(F)c2)C(=O)N(C)[C@@H](C)C(=O)N[C@@H](CC(N)=O)C(=O)N2CCC[C@H]2C(=O)N[C@@H](Cc2cnc[nH]2)C(=O)N[C@@H](CC(C)C)C(=O)N2CCC[C@H]2C(=O)N[C@@H](Cc2c[nH]c3ccccc23)C(=O)N[C@@H](CO)C(=O)N[C@@H](Cc2c[nH]c3ccccc23)C(=O)N1C [Example 7016] ({CH2CO}-[Phe(3-F)][NMeA]NPHLPWSW[NMeNle][NMeNle]RCG-NH2; thioether N-14) | 6.76 to 30.3 nM | 4.78 to 72.9 nM | – | – | –
CCCC[C@H]1C(=O)N(C)[C@@H](CCCC)C(=O)N[C@@H](CCCNC(=N)N)C(=O)N[C@H](C(=O)NCC(N)=O)CSCC(=O)N[C@@H](Cc2ccc(Cl)cc2)C(=O)N(C)[C@@H](C)C(=O)N[C@@H](CC(N)=O)C(=O)N2CCC[C@H]2C(=O)N[C@@H](Cc2cnc[nH]2)C(=O)N[C@@H](CC(C)C)C(=O)N2CCC[C@H]2C(=O)N[C@@H](Cc2c[nH]c3ccccc23)C(=O)N[C@@H](CO)C(=O)N[C@@H](Cc2c[nH]c3ccccc23)C(=O)N1C [Example 1117] ({CH2CO}-[Phe(4-Cl)][NMeA]NPHLPWSW[NMeNle][NMeNle]RCG-NH2; thioether N-14) | 6.76 to 30.3 nM | – | – | – | 4.78 to 72.9 nM
CCCC[C@H]1C(=O)N(C)[C@@H](CCCC)C(=O)N[C@@H](CCCNC(=N)N)C(=O)N[C@H](C(=O)NCC(N)=O)CSCC(=O)N[C@@H](Cc2ccc(O)cc2)C(=O)N(C)[C@@H](C)C(=O)N[C@@H](CCN)C(=O)N2CCC[C@H]2C(=O)N[C@@H](Cc2c[nH]cn2)C(=O)N[C@@H](CC(C)C)C(=O)N2C[C@H](O)C[C@H]2C(=O)N[C@@H](Cc2c[nH]c3ccccc23)C(=O)N[C@@H](CO)C(=O)N[C@@H](Cc2c[nH]c3ccccc23)C(=O)N1C [Example 5094] ({CH2CO}-Y[NMeA][Dab]PHL[Hyp]WSW[NMeNle][NMeNle]RCG-NH2; thioether N-14) | 0.385 to 6.74 nM | 4.78 to 72.9 nM | – | – | –
CCCC[C@H]1C(=O)N(C)[C@@H](CCCC)C(=O)N[C@@H](CCCNC(=N)N)C(=O)N[C@H](C(=O)NCC(=O)NCC(N)=O)CSCC(=O)N[C@@H](Cc2ccc(O)cc2)C(=O)N(C)[C@@H](C)C(=O)N[C@@H](CC(N)=O)C(=O)N2CCC[C@H]2C(=O)N[C@@H](Cc2cnc[nH]2)C(=O)N[C@@H](CC(C)C)C(=O)N2CCC[C@H]2C(=O)N[C@@H](Cc2c[nH]c3ccccc23)C(=O)N[C@@H](CO)C(=O)N[C@@H](Cc2c[nH]c3ccccc23)C(=O)N1C [Example 6018] ({CH2CO}-Y[NMeA]NPHLPWSW[NMeNle][NMeNle]RCGG-NH2; thioether N-14) | 0.385 to 6.74 nM | 0.158 to 4.71 nM | – | – | –
CCCC[C@H]1C(=O)N2CCC[C@@H]2C(=O)N2CCC[C@H]2C(=O)N[C@@H](C(C)C)C(=O)N(C)[C@@H](Cc2ccccc2)C(=O)N[C@@H](Cc2ccc(O)cc2)C(=O)N(C)CC(=O)N[C@@H](Cc2c[nH]c3ccccc23)C(=O)N[C@@H](Cc2ccc(O)cc2)C(=O)N[C@@H](CC(C)C)C(=O)N[C@H](C(=O)NCC(N)=O)CSCC(=O)N[C@@H](Cc2ccccc2)C(=O)N(C)[C@@H](Cc2ccccc2)C(=O)N1C [Example 3173] (HELM PEPTIDE1{[O=C(C[*:3])[*:2]].F.[meF].[CCCC[C@@H](C(=O)[*:2])N(C)[*:1]].[dP].P.V.[meF].Y.[Sar].W.Y.L.C.G.[am]}$PEPTIDE1,PEPTIDE1,1:R3-14:R3$$$V2.0) | > 30.5 nM | – | – | – | 4.78 to 72.9 nM
CCCC[C@H]1C(=O)N(C)CC(=O)N[C@@H](CC(=O)O)C(=O)N[C@@H](C(C)C)C(=O)N(C)[C@@H](Cc2ccccc2)C(=O)N[C@@H](Cc2ccc(O)cc2)C(=O)N(C)CC(=O)N[C@@H](Cc2csc3ccccc23)C(=O)N[C@@H](Cc2ccc(O)cc2)C(=O)N[C@@H](CC(C)C)C(=O)N[C@H](C(=O)NCC(N)=O)CSCC(=O)N[C@@H](Cc2cccc(Cl)c2)C(=O)N(C)[C@@H](Cc2ccccc2)C(=O)N1C [Example 3114] ({CH2CO}-[Phe(3-Cl)][NMeF][NMeNle][Sar]DV[NMeF]Y[Sar][Bta]YLCG-NH2; thioether N-13) | 6.76 to 30.3 nM | – | – | – | 4.78 to 72.9 nM
